# Experimental data published in patent publication US20250129067A1 (Progentos Therapeutics, Inc., priority 2021, published 2025).
# Values joined by “and” are separate entries in the source; they are usually repeats but may differ in a detail not shown here. Identical values can stand only once.
# Legend:
# [1] = system: Oligodendrocyte progenitor cells (OPCs); test: In vitro OPC differentiation assay, GPR17 expression (immunocytochemistry); conditions: 3 μM (10× concentration, final 0.3 μM); 72 hours; fold change over vehicle
# [2] = system: GPR17+ cells (newly differentiated oligodendrocytes); test: In vivo OPC differentiation, GPR17+ cells in brain; conditions: Mus musculus, po, 24 h, read-out: GPR17 Fold Induction (Over Vehicle)
# [3] = system: Oligodendrocyte progenitor cells (OPCs); test: In vitro OPC differentiation assay, MBP expression (immunocytochemistry); conditions: 72 hours of treatment; fold change over vehicle
# PDGFRα = PDGFRα (Homo sapiens (Human), UniProt P16234); test: PDGFRα kinase enzyme assay (Promega PDGFRα Kinase Enzyme System, ADP-Glo); assay type: biochemical; conditions: 11-point dose response, 10,000 nM to 0.169 nM, 150 uM ATP, BLQ = below limit of quantitation; for IC50: read-out: IC50 Values on PDGFRα Kinase Inhibition, IC50
# Method in brief: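 Purified PDGFRα protein (20 ng) reacted with test compound per the Promega kinase system protocol. ADP formed was measured by ADP-Glo luminescence against a standard curve, giving IC50.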
# Sequence of PDGFRα (P16234 24-1089): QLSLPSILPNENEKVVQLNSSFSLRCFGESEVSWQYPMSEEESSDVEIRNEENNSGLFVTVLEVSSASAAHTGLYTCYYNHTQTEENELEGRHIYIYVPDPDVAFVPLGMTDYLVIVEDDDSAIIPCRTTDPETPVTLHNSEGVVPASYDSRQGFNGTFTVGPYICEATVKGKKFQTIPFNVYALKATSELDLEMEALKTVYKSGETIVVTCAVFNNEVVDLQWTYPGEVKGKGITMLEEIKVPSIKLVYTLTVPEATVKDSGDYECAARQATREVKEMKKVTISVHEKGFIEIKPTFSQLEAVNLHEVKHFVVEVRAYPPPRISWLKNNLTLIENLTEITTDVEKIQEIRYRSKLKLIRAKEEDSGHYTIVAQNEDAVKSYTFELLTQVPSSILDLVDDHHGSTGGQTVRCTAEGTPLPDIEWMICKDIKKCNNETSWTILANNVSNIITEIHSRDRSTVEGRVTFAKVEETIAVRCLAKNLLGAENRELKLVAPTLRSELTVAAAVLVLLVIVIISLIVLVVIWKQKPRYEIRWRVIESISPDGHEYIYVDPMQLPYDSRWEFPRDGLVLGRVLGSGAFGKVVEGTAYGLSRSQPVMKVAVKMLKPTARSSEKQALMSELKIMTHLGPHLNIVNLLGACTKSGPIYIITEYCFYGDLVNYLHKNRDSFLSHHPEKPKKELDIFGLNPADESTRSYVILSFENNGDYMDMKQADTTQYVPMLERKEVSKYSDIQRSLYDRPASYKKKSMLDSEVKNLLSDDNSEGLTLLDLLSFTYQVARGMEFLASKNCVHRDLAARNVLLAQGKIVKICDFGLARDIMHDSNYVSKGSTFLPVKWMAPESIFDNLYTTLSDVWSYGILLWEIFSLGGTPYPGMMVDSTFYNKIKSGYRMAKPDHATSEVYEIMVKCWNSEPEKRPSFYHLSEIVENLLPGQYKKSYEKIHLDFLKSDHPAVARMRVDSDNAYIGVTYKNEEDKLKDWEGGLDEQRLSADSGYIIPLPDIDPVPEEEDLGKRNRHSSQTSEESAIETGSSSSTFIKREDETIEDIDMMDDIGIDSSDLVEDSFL
Structure (SMILES),GPR17 Fold Induction (Over Vehicle; 3 μM) [1],fold induction at 3 mg/kg [2],MBP Fold Induction (Over vehicle) [3],IC50 (PDGFRα),fold induction at 30 mg/kg [2],fold induction at 10 mg/kg [2],"IC50 Values on PDGFRα Kinase Inhibition, IC50 (nM) (PDGFRα)",fold induction at 6 mg/kg [2]
"CCC(CC)Cc1cnc(N2CCN(c3cnn4cc(-c5cnn(C)c5)ccc34)CC2)nc1 [Compound 153, 3-(4-(5-(2-ethylbutyl)pyrimidin-2-yl)piperazin-1-yl)-6-(1-methyl-1H-pyrazol-4-yl)pyrazolo[1,5-a]pyridine]",6.37,1.58,4.86,1370 nM,,,,
"Cn1cc(-c2ccc3c(N4CCN(C(=O)N5CCCCC5)CC4)cnn3c2)cn1 [Compound 163, (4-(6-(1-methyl-1H-pyrazol-4-yl)pyrazolo[1,5-a]pyridin-3-yl)piperazin-1-yl)(piperidin-1-yl)methanone]",5.84,0.95,48.00,350 nM,,,,
"Cn1cc(-c2ccc3c(N4CCN(c5ncc(C(O)CCc6ccccc6)cn5)CC4)cnn3c2)cn1 (stereo not drawn) [Compound 175, 1-(2-(4-(6-(1-methyl-1H-pyrazol-4-yl)pyrazolo[1,5-a]pyridin-3-yl)piperazin-1-yl)pyrimidin-5-yl)-3-phenylpropan-1-ol]",6.34,5.15,6.20,220 nM,,,,
"CCC(CC)C(O)c1cnc(N2CCN(c3cnn4cc(-c5cnn(C)c5)ccc34)CC2)nc1 (stereo not drawn) [Compound 177, 2-ethyl-1-(2-(4-(6-(1-methyl-1H-pyrazol-4-yl)pyrazolo[1,5-a]pyridin-3-yl)piperazin-1-yl)pyrimidin-5-yl)butan-1-ol]",10.12,2.37,32.85,75.3 nM,,,,
"Cn1cc(-c2ccc3c(N4CCN(c5ncc(Cc6cccs6)cn5)CC4)cnn3c2)cn1 [Compound 178, 6-(1-methyl-1H-pyrazol-4-yl)-3-(4-(5-(thiophen-2-ylmethyl)pyrimidin-2-yl)piperazin-1-yl)pyrazolo[1,5-a]pyridine]",5.98,,7.25,2070 nM,0.96,,,
"Cn1cc(-c2ccc3c(N4CCN(c5ncc(Cc6ccncc6)cn5)CC4)cnn3c2)cn1 [Compound 179, 6-(1-methyl-1H-pyrazol-4-yl)-3-(4-(5-(pyridin-4-ylmethyl)pyrimidin-2-yl)piperazin-1-yl)pyrazolo[1,5-a]pyridine]",5.37,,10.12,662 nM,,8.36,,
"CC(C)(C)OC(=O)N1CCN(c2cnn3cc(-c4cnn(CCCN5CCOCC5)c4)ccc23)CC1 [Compound 233, tert-butyl 4-(6-(1-(3-morpholinopropyl)-1H-pyrazol-4-yl)pyrazolo[1,5-a]pyridin-3-yl)piperazine-1-carboxylate]",9.27,,46.15,692 nM,,2.16,,
"CC(C)n1cc(-c2ccc3c(N4CCN(C(=O)OC(C)(C)C)CC4)cnn3c2)cn1 [Compound 234, tert-butyl 4-(6-(1-isopropyl-1H-pyrazol-4-yl)pyrazolo[1,5-a]pyridin-3-yl)piperazine-1-carboxylate]",7.16,1.15,11.56,311 nM,,,,
"Cn1cc(-c2ccc3c(N4CCN(c5ccc(Cc6ccccc6)cn5)CC4)cnn3c2)cn1 [Compound 249, 3-[4-(5-benzylpyridin-2-yl)piperazin-1-yl]-6-(1-methyl-1H-pyrazol-4-yl)pyrazolo[1,5a]pyridine]",6.40,,1.64,1260 nM,10.6,,,
"Cn1cc(-c2ccc3c(N4CCN(c5ncc(Cc6cccnc6)cn5)CC4)cnn3c2)cn1 [Compound 251, 6-(1-methyl-1H-pyrazol-4-yl)-3-{4-[5-(pyridin-3-ylmethyl)pyrimidin-2-yl]piperazin-1-yl}pyrazolo[1,5-a]pyridine]",4.97,1.22,9.20,1160 nM,,,,
"COc1ccc(Cc2cnc(N3CCN(c4cnn5cc(-c6cnn(C)c6)ccc45)CC3)nc2)cc1 [Compound 254, 3-(4-(5-(4-methoxybenzyl)pyrimidin-2-yl)piperazin-1-yl)-6-(1-methyl-1H-pyrazol-4-yl)pyrazolo[1,5-a]pyridine]",6.77,,4.04,267 nM,,10.7,,
"CC(c1ccc(F)cc1)c1cnc(N2CCN(c3cnn4cc(-c5cnn(C)c5)ccc34)CC2)nc1 (stereo not drawn) [Compound 258, 3-(4-(5-(1-(4-fluorophenyl)ethyl)pyrimidin-2-yl)piperazin-1-yl)-6-(1-methyl-1H-pyrazol-4-yl)pyrazolo[1,5-a]pyridine]",9.21,2.82,16.36,803 nM,,,,
"C[C@@H](OC(=O)N1CCN(c2cnn3cc(-c4cnn(C)c4)ccc23)CC1)c1ccccn1 [Compound 260, (1R)-1-pyridin-2-ylethyl 4-[6-(1-methyl-1H-pyrazol-4-yl)pyrazolo[1,5-a]pyridin-3-yl]piperazine-1-carboxylate]",6.26,,11.66,377 nM,,2.79,,
"CC(OC(=O)N1CCN(c2cnn3cc(-c4cnn(C)c4)ccc23)CC1)c1ccc(Cl)cc1 (stereo not drawn) [Compound 265, 1-(4-chlorophenyl)ethyl 4-(6-(1-methyl-1H-pyrazol-4-yl)pyrazolo[1,5-a]pyridin-3-yl)piperazine-1-carboxylate]",7.72,7.92,20.78,,,,BLQ,
"Cc1ccc([C@@H](C)OC(=O)N2CCN(c3cnn4cc(-c5cnn(C)c5)ccc34)CC2)cc1 [Compound 267, (1R)-1-(4-methylphenyl)ethyl 4-[6-(1-methyl-1H-pyrazol-4-yl)pyrazolo[1,5-a]pyridin-3-yl]piperazine-1-carboxylate]",5.62,5.75,2.33,,,,BLQ,7.52
"C[C@@H](OC(=O)N1CCN(c2cnn3cc(-c4cnn(C)c4)ccc23)CC1)c1cccc2ccccc12 [Compound 269, (1R)-1-(1-naphthyl)ethyl 4-[6-(1-methyl-1H-pyrazol-4-yl)pyrazolo[1,5-a]pyridin-3-yl]piperazine-1-carboxylate]",5.70,0.91,13.54,138 nM,,,,
"C[C@H](OC(=O)N1CCN(c2cnn3cc(-c4cnn(C)c4)ccc23)CC1)c1ccc(Cl)cc1 [Compound 271, (1S)-1-(4-chlorophenyl)ethyl 4-[6-(1-methyl-1H-pyrazol-4-yl)pyrazolo[1,5-a]pyridin-3-yl]piperazine-1-carboxylate]",6.67,0.83,2.21,1490 nM,,,,
"Cn1cc(-c2ccc3c(N4CCN(C(=O)OCc5cccc(C#N)c5)CC4)cnn3c2)cn1 [Compound 272, 3-cyanobenzyl 4-[6-(1-methyl-1H-pyrazol-4-yl)pyrazolo[1,5-a]pyridin-3-yl]piperazine-1-carboxylate]",6.11,2.47,40.13,865 nM,,5.93,,
"C[C@@H](NC(=O)N1CCN(c2cnn3cc(-c4cnn(C)c4)ccc23)CC1)c1ccc(Cl)cc1 [Compound 274, N-[(1R)-1-(4-chlorophenyl)ethyl]-4-[6-(1-methyl-1H-pyrazol-4-yl)pyrazolo[1,5-a]pyridin-3-yl]piperazine-1-carboxamide]",5.01 and 9.78,6.67,24.95,49 nM,,,,
